We go through one molecule from article PMC8703934, “Lytic Polysaccharide Monooxygenase from Talaromyces amestolkiae with an Enigmatic Linker-like Region: The Role of This Enzyme on Cellulose Saccharification” (International Journal of Molecular Sciences, 2021).

Molecules are shown by their SMILES.

One assay has as its target T1, TamAA9A-CD (Talaromyces amestolkiae, UniProt A0A364LE17).
T1 construct: gene BHQ10_010049; native signal peptide (removed), no tag mentioned; secreted from Pichia pastoris X-33; theoretical 24 kDa, about 30 kDa glycosylated; copper-saturated; mature N-terminus HGYVQN from primer
In words: spectrophotometric oxidation to coerulignone at […] nm, Michaelis-Menten fit. It is filed as biochemical. The settings on record: 2 mM H2O2 as co-substrate; copper-saturated enzyme; 100 mM sodium phosphate pH 6; substrate range 1.25-100 mM.

A further assay addresses T2, TamAA9A-CBM (Talaromyces amestolkiae, UniProt A0A364LE17).
T2 construct: gene BHQ10_010049; native signal peptide (removed); secreted from Pichia pastoris X-33; theoretical 34 kDa, 75-100 kDa glycosylated; copper-saturated; with Beta-glucosidase BGL-2 (CBM1 domain only)
The assay is described as above. It is filed as biochemical. The settings on record: 2 mM H2O2 as co-substrate; copper-saturated enzyme; 100 mM sodium phosphate pH 6; substrate range 1.25-100 mM; printed kcat/Km (0.003) does not match printed kcat and Km.

T1 sequence (A0A364LE17 entry or part of it): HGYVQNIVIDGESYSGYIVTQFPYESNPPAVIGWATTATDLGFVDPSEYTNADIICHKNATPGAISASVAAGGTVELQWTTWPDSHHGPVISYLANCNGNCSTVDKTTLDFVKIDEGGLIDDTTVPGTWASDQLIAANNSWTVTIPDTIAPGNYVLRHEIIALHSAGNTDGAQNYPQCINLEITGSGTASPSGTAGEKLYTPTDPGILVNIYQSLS
T2 sequence (A0A364LE17 entry or part of it): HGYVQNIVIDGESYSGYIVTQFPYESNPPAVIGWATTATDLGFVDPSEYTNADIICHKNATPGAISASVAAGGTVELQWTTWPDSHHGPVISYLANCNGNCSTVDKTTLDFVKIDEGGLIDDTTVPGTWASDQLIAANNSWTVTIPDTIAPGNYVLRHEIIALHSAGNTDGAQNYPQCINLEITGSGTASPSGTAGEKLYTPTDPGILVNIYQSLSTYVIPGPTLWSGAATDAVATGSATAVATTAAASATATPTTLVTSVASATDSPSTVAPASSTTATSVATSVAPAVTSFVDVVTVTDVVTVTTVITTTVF

For `COc1cccc(OC)c1O` [2,6-DMP, 2,6-dimethoxyphenol], the values for the Km on TamAA9A-CD and on TamAA9A-CBM were 87.7 ± 0.7 mM and 85.68 ± 0.7 mM, respectively.
